Results from patent US20260130864A1, “METHOD AND COMPOSITION FOR ENHANCING EXERCISE PERFORMANCE” (NANJING NUTRABUILDING BIO-TECH CO., LTD., priority 2023, published 2026).

Key:
Assay type in all cases: in vivo
[1] = treadmill exercise endurance of mice after 4 weeks administration; settings: for running distance on treadmill when exhausted (exercise endurance): Swiss male mice, control 948 m
Description: (§1) Twenty-four pure Swiss male mice were randomly divided into three groups, with 8 mice in each group, and were given food and water freely under the light and dark cycle of 12:12 hours. The first group was the control group (group 1, no DHZ), the second group was given by gavage 50 mg/kg DHZ (group 2), and the third group was given by gavage 100 mg/kg DHZ (group 3). DHZ solution was prepared with 5% DMSO, 25% PEG-400, 30% propylene glycol and 40% normal saline. All the mice were administered at a dose of 10 mL/kg body weight for 4 weeks. 4 weeks later, these mice were made to run on treadmill voluntarily for exercise analysis, and the running distance of each of mice when exhausted was recorded. All the mice were untrained before exercise. Each group was perfused with paraformaldehyde, and brain tissue was frozen in liquid nitrogen for ELISA, and then dopamine was detected. The cecal feces of mice were collected and the flora was sequenced by 16s. The proportion of different bacteria in feces was obtained, and the DNA in feces was extracted to detect the copy number of Eubacterium rectale and Coprococcus eutactus. The statistical analysis of data was conducted by unpaired t-test, and * indicates significant difference. Compared with the control group, * means p<0.05; ** means p<0.01; *** means p<0.001; **** means p<0.0001.

[2] = tested on: dopamine; test: dopamine content in the brain of mice (ELISA); settings: 4 weeks; for dopamine content in the brain: control 3,293 ng/g brain
Description: as §1

[3] = tested on: Eubacterium rectale; test: bacterial copy number of Eubacterium rectale in cecal feces of mice; settings: after 4 weeks of DHZ administration
Description: as §1, with “p<0.0001. […]” for “p<0.0001.”

[4] = tested on: Coprococcus eutactus; test: bacterial copy number of Coprococcus eutactus in cecal feces of mice; settings: after 4 weeks of DHZ administration
Description: as §1, with “p<0.0001. […]” for “p<0.0001.”

[5] = high dose group (100 mg/kg by gavage)

COc1cc(/C=C/C(C)=O)ccc1O [DHZ, Dehydrozingerone]
running distance on treadmill when exhausted (exercise endurance) ([1]; 50 mg/kg DHZ by gavage (low-dose group)): 1112 m | running distance on treadmill when exhausted (exercise endurance) ([1]; 100 mg/kg DHZ by gavage (high-dose group)): 1367 m | exercise performance higher than that of control group ([1]; high-dose group (100 mg/kg by gavage)): 44% | brain dopamine level, times higher than in the control group [2, 5]: 5 times | dopamine content in the brain [2, 5]: 19,988 ng/g brain | dopamine content in the brain ([2]; low dose group (50 mg/kg by gavage)): 16,285 ng/g brain | increase of number (copy number) of Eubacterium rectale compared with the control group [3]: about 3 times | increase of number (copy number) of Coprococcus eutactus compared with the control group [4]: about 3 times
